Experimental data: patent US4442044A, “Process for preparing monoesters and diesters of N-alkyl substituted amino methyl phosphonic acid” (priority 1983, dated 1984)

What was measured:
Assay type in all cases: in vivo
Morningglory [1] = assay: post-emergent herbicidal activity, greenhouse
How it was run: (§1)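 Post-emergence foliar spray at tabulated application rates, using aliquots of a 1.0% stock in acetone, THF or water plus ~0.4% emulsifier, applied to 2–3-week-old greenhouse plants. Plant injury was rated relative to controls roughly two and four weeks after treatment.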

Downy Brome [2] = assay: post-emergent herbicidal activity, greenhouse
How it was run: as §1

Sorghum = assay: post-emergent herbicidal activity, greenhouse; conditions: Table II
How it was run: as §1

Panicum Spp = assay: post-emergent herbicidal activity, greenhouse; conditions: Table II
How it was run: as §1

Crabgrass = assay: post-emergent herbicidal activity, greenhouse; conditions: Table II
How it was run: as §1

Cocklebur [3] = assay: post-emergent herbicidal activity, greenhouse
How it was run: as §1

Velvetleaf [4] = assay: post-emergent herbicidal activity, greenhouse
How it was run: as §1

Canada Thistle [5] = assay: post-emergent herbicidal activity, greenhouse; conditions: Table I, 4 WAT
How it was run: as §1

Yellow Nutsedge [6] = assay: post-emergent herbicidal activity, greenhouse; conditions: Table I, 4 WAT, 11.2 kg/h
How it was run: as §1

Lambsquarters [7] = assay: post-emergent herbicidal activity, greenhouse
How it was run: as §1

Rice = assay: post-emergent herbicidal activity, greenhouse; conditions: Table II
How it was run: as §1

Quackgrass [8] = assay: post-emergent herbicidal activity, greenhouse; conditions: Table I, 4 WAT
How it was run: as §1

Morningglory [9] = assay: pre-emergent herbicidal activity, soil incorporation; conditions: Table III, 2 WAT, 11.2 kg/h
How it was run: (§2)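 Here the herbicide is blended into the top soil layer rather than sprayed, and pans absorb water from below under normal sunlight for around two weeks. Percent control, averaged per species against untreated pans, sets the pre-emergent activity index.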

Downy Brome [10] = assay: as above; conditions: Table III, 2 WAT, 11.2 kg/h
How it was run: as §2

Cocklebur [11] = assay: as above; conditions: Table III, 2 WAT, 11.2 kg/h
How it was run: as §2

Barnyardgrass = assay: as above; conditions: Table III, 2 WAT, 11.2 kg/h
How it was run: as §2

Velvetleaf [12] = assay: as above; conditions: Table III, 2 WAT, 11.2 kg/h
How it was run: as §2

Johnsongrass = assay: as above; conditions: Table III, 2 WAT, 11.2 kg/h
How it was run: as §2

Canada Thistle [13] = assay: as above; conditions: Table III, 2 WAT, 11.2 kg/h
How it was run: as §2

Yellow Nutsedge [14] = assay: as above; conditions: Table III, 2 WAT, 11.2 kg/h
How it was run: as §2

Smartweed = assay: as above; conditions: Table III, 2 WAT, 11.2 kg/h
How it was run: as §2

Lambsquarters [15] = assay: as above; conditions: Table III, 2 WAT, 11.2 kg/h
How it was run: as §2

Quackgrass [16] = assay: as above; conditions: Table III, 2 WAT, 11.2 kg/h
How it was run: as §2

CC(C#N)OP(=O)(O)CNCC(=O)OCCCl (centres unmarked) [Example 7, glycine, N-[[(1-cyanoethoxy)hydroxyphosphinyl]methyl], 2-chloroethyl ester] was tested, and the “post-emergent herbicidal activity index” value (Morningglory [1]; Table I, 4 WAT, 5.6 kg/h) was 2 (50-74% control), the “post-emergent herbicidal activity index” value (Morningglory [1]; Table I, 4 WAT, 11.2 kg/h) was 2 (50-74% control) and the “post-emergent herbicidal activity index” value (Morningglory [1]; Table II, 2 WAT, 0.01 kg/h) was 1 (25-49% control). For the same compound, the “post-emergent herbicidal activity index” value (Morningglory [1]; Table II, 4 WAT, 0.06 kg/h) was 2 (50-74% control), the “post-emergent herbicidal activity index” value (Morningglory [1]; Table II, 4 WAT, 0.28 kg/h) was 1 (25-49% control) and the “post-emergent herbicidal activity index” value (Morningglory [1]; Table II, 4 WAT, 1.12 kg/h) was 2 (50-74% control). The “post-emergent herbicidal activity index” value (Morningglory [1]; Table II, 4 WAT, 5.6 kg/h) was 2 (50-74% control), the “post-emergent herbicidal activity index” value (Downy Brome [2]; Table I, 4 WAT, 5.6 kg/h) was 2 (50-74% control) and the “post-emergent herbicidal activity index” value (Downy Brome [2]; Table I, 4 WAT, 11.2 kg/h) was 2 (50-74% control). For the same compound, the “post-emergent herbicidal activity index” value (Downy Brome [2]; Table II, 2 WAT, 0.01 kg/h) was 0 (0-24% control), the “post-emergent herbicidal activity index” value (Downy Brome [2]; Table II, 4 WAT, 0.06 kg/h) was 1 (25-49% control) and the “post-emergent herbicidal activity index” value (Downy Brome [2]; Table II, 4 WAT, 0.28 kg/h) was 2 (50-74% control). For the same compound, the “post-emergent herbicidal activity index” value (Downy Brome [2]; Table II, 4 WAT, 1.12 kg/h) was 2 (50-74% control), the “post-emergent herbicidal activity index” value (Downy Brome [2]; Table II, 4 WAT, 5.6 kg/h) was 3 (75-99% control) and the “post-emergent herbicidal activity index” value (Sorghum; 2 WAT, 0.01 kg/h) was 0 (0-24% control). The “post-emergent herbicidal activity index” value (Sorghum; 4 WAT, 0.06 kg/h) was 2 (50-74% control), the “post-emergent herbicidal activity index” value (Sorghum; 4 WAT, 0.28 kg/h) was 2 (50-74% control) and the “post-emergent herbicidal activity index” value (Sorghum; 4 WAT, 1.12 kg/h) was 2 (50-74% control). The “post-emergent herbicidal activity index” value (Sorghum; 4 WAT, 5.6 kg/h) was 3 (75-99% control), the “post-emergent herbicidal activity index” value (Panicum Spp; 2 WAT, 0.01 kg/h) was 0 (0-24% control) and the “post-emergent herbicidal activity index” value (Panicum Spp; 4 WAT, 0.06 kg/h) was 3 (75-99% control). The “post-emergent herbicidal activity index” value (Panicum Spp; 4 WAT, 0.28 kg/h) was 3 (75-99% control), the “post-emergent herbicidal activity index” value (Panicum Spp; 4 WAT, 1.12 kg/h) was 4 (100% control) and the “post-emergent herbicidal activity index” value (Panicum Spp; 4 WAT, 5.6 kg/h) was 3 (75-99% control). For the same compound, the “post-emergent herbicidal activity index” value (Crabgrass; 2 WAT, 0.01 kg/h) was 2 (50-74% control), the “post-emergent herbicidal activity index” value (Crabgrass; 4 WAT, 0.06 kg/h) was 3 (75-99% control) and the “post-emergent herbicidal activity index” value (Cocklebur [3]; Table I, 4 WAT, 5.6 kg/h) was 4 (100% control). The “post-emergent herbicidal activity index” value (Cocklebur [3]; Table I, 4 WAT, 11.2 kg/h) was 3 (75-99% control), the “post-emergent herbicidal activity index” value (Cocklebur [3]; Table II, 2 WAT, 0.01 kg/h) was 0 (0-24% control) and the “post-emergent herbicidal activity index” value (Cocklebur [3]; Table II, 4 WAT, 0.06 kg/h) was 0 (0-24% control). The “post-emergent herbicidal activity index” value (Cocklebur [3]; Table II, 4 WAT, 0.28 kg/h) was 2 (50-74% control), the “post-emergent herbicidal activity index” value (Cocklebur [3]; Table II, 4 WAT, 1.12 kg/h) was 2 (50-74% control) and the “post-emergent herbicidal activity index” value (Cocklebur [3]; Table II, 4 WAT, 5.6 kg/h) was 3 (75-99% control). For the same compound, the “post-emergent herbicidal activity index” value (Velvetleaf [4]; Table I, 4 WAT, 5.6 kg/h) was 3 (75-99% control), the “post-emergent herbicidal activity index” value (Velvetleaf [4]; Table I, 4 WAT, 11.2 kg/h) was 3 (75-99% control) and the “post-emergent herbicidal activity index” value (Velvetleaf [4]; Table II, 2 WAT, 0.01 kg/h) was 0 (0-24% control). The “post-emergent herbicidal activity index” value (Velvetleaf [4]; Table II, 4 WAT, 0.06 kg/h) was 1 (25-49% control), the “post-emergent herbicidal activity index” value (Velvetleaf [4]; Table II, 4 WAT, 0.28 kg/h) was 2 (50-74% control) and the “post-emergent herbicidal activity index” value (Velvetleaf [4]; Table II, 4 WAT, 1.12 kg/h) was 2 (50-74% control). For the same compound, the “post-emergent herbicidal activity index” value (Velvetleaf [4]; Table II, 4 WAT, 5.6 kg/h) was 3 (75-99% control), the “post-emergent herbicidal activity index” value (Canada Thistle [5]; 5.6 kg/h) was 2 (50-74% control) and the “post-emergent herbicidal activity index” value (Canada Thistle [5]; 11.2 kg/h) was 2 (50-74% control). The “post-emergent herbicidal activity index” value (Yellow Nutsedge [6]) was 3 (75-99% control), the “post-emergent herbicidal activity index” value (Lambsquarters [7]; Table I, 4 WAT, 5.6 kg/h) was 4 (100% control) and the “post-emergent herbicidal activity index” value (Lambsquarters [7]; Table I, 4 WAT, 11.2 kg/h) was 3 (75-99% control). The “post-emergent herbicidal activity index” value (Lambsquarters [7]; Table II, 2 WAT, 0.01 kg/h) was 1 (25-49% control), the “post-emergent herbicidal activity index” value (Lambsquarters [7]; Table II, 4 WAT, 0.06 kg/h) was 0 (0-24% control) and the “post-emergent herbicidal activity index” value (Lambsquarters [7]; Table II, 4 WAT, 0.28 kg/h) was 4 (100% control). The “post-emergent herbicidal activity index” value (Lambsquarters [7]; Table II, 4 WAT, 1.12 kg/h) was 2 (50-74% control), the “post-emergent herbicidal activity index” value (Lambsquarters [7]; Table II, 4 WAT, 5.6 kg/h) was 2 (50-74% control) and the “post-emergent herbicidal activity index” value (Rice; 2 WAT, 0.01 kg/h) was 0 (0-24% control). For the same compound, the “post-emergent herbicidal activity index” value (Rice; 4 WAT, 0.06 kg/h) was 0 (0-24% control), the “post-emergent herbicidal activity index” value (Rice; 4 WAT, 0.28 kg/h) was 1 (25-49% control) and the “post-emergent herbicidal activity index” value (Rice; 4 WAT, 1.12 kg/h) was 3 (75-99% control). The “post-emergent herbicidal activity index” value (Rice; 4 WAT, 5.6 kg/h) was 3 (75-99% control), the “post-emergent herbicidal activity index” value (Quackgrass [8]; 5.6 kg/h) was 2 (50-74% control) and the “post-emergent herbicidal activity index” value (Quackgrass [8]; 11.2 kg/h) was 0 (0-24% control). For the same compound, the “pre-emergent herbicidal activity index” value (Morningglory [9]) was 0 (1-24% control), the “pre-emergent herbicidal activity index” value (Downy Brome [10]) was 0 (1-24% control) and the “pre-emergent herbicidal activity index” value (Cocklebur [11]) was 0 (1-24% control). For the same compound, the “pre-emergent herbicidal activity index” value (Barnyardgrass) was 0 (1-24% control), the “pre-emergent herbicidal activity index” value (Velvetleaf [12]) was 0 (1-24% control) and the “pre-emergent herbicidal activity index” value (Johnsongrass) was 1 (25-49% control). For the same compound, the “pre-emergent herbicidal activity index” value (Canada Thistle [13]) was 1 (25-49% control), the “pre-emergent herbicidal activity index” value (Yellow Nutsedge [14]) was 0 (1-24% control) and the “pre-emergent herbicidal activity index” value (Smartweed) was 0 (1-24% control). For the same compound, the “pre-emergent herbicidal activity index” value (Lambsquarters [15]) was 0 (1-24% control) and the “pre-emergent herbicidal activity index” value (Quackgrass [16]) was 0 (1-24% control).
